Test results reported in US20230129485A1, “SYSTEM AND METHOD FOR DETERMINING MATERIAL PROPERTIES OF MOLECULAR SYSTEMS FROM AN AB-INITIO PARAMETERIZED FORCE-FIELD” (InterX, Inc., priority 2021, published 2023).
Where two headings read alike, the source gives them in different places.

What was measured:
[1] = Free energy of hydration predicted with the QM-parameterized force field model (ARROW FF), classical MD and PIMD simulation in a water box; settings: for Arrow PIMD8 Error: absolute error vs Exp (hydration)
From the text: For example, the example QM-parameterized force-field molecular simulation process 400 can use Bennett Acceptance Ratio (BAR) to compute the free energy of hydration/solvation of the molecule in water or any other solvent. In some implementations, the analysis of the molecular dynamics simulations includes analysis, predication, and visualization of ensemble properties of atoms/molecules from atomic and molecular trajectories using the optimized parameters of the QM-parameterized force field model (i.e., the quantum mechanics rule-based reasoning technique) and the QM-parameterized force field model.
(§1) In some simulations of the QM-parameterized force field molecular simulation process, the molecules were placed in a water or cyclohexane box of size 32×32×32 Å3. Particle-Mesh Ewald (PME) algorithm was used to compute the electrostatic interactions. A 32×32×32 grid mesh and 5th power spline interpolation order can be used to compute the inverse PME sum. 9 Å cutoffs were used to compute the direct PME sum as well as the exchange and dispersion interactions. Bulk corrections were applied to account for distance cut-off of dispersion interactions. Solvation free energies were computed by decoupling the interactions between the solute and the solvent molecules. Electrostatic, exchange-repulsion and dispersion interactions were switched off simultaneously using a lambda-dependent scaling (a scaling factor power=2 was used) and a soft-coring algorithm (maximal soft-coring radius=1.5 Å, soft-coring radius scaling factor power=1). 15 lambda points unequally spaced (X=0, 0.05, 0.1, 0.2, 0.3, 0.4, 0.5, 0.6, 0.7, 0.75, 0.8, 0.85, 0.9, 0.95, 1.0) were used to decouple the solute-solvent intermolecular interactions.
(§2) In some simulations of the QM-parameterized force field molecular simulation process, energy minimization (10,000 steps) using the steepest descent algorithm was initially performed on all the simulation systems. This was followed by a 50 ps equilibration and 1 ns production runs in the isothermal-isobaric ensemble (NPT). […] Pressure was maintained at 1 atm using a MTTK barostat (relaxation time=5 ps). A Multiple Time Step (MTS) algorithm was used to integrate the equations of motion both for the classical and path-integral runs. […] The calculations were performed using the QM-parameterized force field model.
Using the QM-parameterized force field model, the QM-parameterized force field device can compute or predict the solvation free energies using both the Bennett acceptance ratio (BAR) and thermodynamic integration (TI) method with <dH/dλ> values interpolated by cubic splines. […] FIG. 7A illustrates a <dH/dλ> dependence for desolvation of Anthracene in water. FIG. 7B illustrates accumulated statistical errors for TI calculations of AG desolvation of Anthracene in water.

[2] = Free energy of hydration by Polarizable Continuum Model (PCM); settings: absolute error vs Exp (hydration)
Procedure: (§3) Due to unavailability of free energy data for the original COSMO model, the free energies of solvation for the molecule dataset are calculated using MolPro ver. […] The comparisons to other implicit solvent models such as SMD, PCM and COSMO-RS are limited to the overlap of the molecules computed using QM-parameterized force field model. The free energies of hydration as predicted by these implicit solvent models (SMD, PCM) were received.

[3] = Free energy of hydration by COSMO-RS
Procedure: as §3

[4] = Free energy of hydration by Solvation Model Dielectric (SMD) implicit solvent model; settings: absolute error vs Exp (hydration)
Procedure: as §3

[5] = experimental, cited from earlier work
[6] = CHEX/H2O partition coefficient (log D) predicted with the QM-parameterized force field model (ARROW FF)
From the text: In some simulations, the example QM-parameterized force-field molecular simulation process includes using the functional form of the bonded interactions, with force constants and equilibrium values fitted to QM energies at the MP2/aug-cc-pVTZ level of theory. In some simulations, solvents of water and cyclohexane are selected. Cyclohexane (CHEX) is nonpolar and equilibrates relatively quickly. Reliable experimental data for both CHEX solvation free energies, as well as for the CHEX/H2O partition coefficients are used in these simulations.
In some example simulations, solutes containing neutral chemical functional groups, for example carboxylic acids, alkanes, alkenes, aromatics, aldehydes, ketones, alcohols, amides, esters, thiols, sulfides, disulfides and heterocycles, are used. The simulations were performed independently by four groups using their own respective computational resources and architectures, and then averaged. FIGS. 9A-9C show solvation and hydration free energies predictions of various solutes, using the QM-parameterized force field model, in some embodiments.
The straight line is a line of agreement between experimental and simulated/predicted values, and the gray bar is the range or chemical accuracy. […] The molecules here are a subset of those in a) because only those with experimental values for CHEX solvation can be included.

[7] = CHEX/H2O partition coefficient, experimental, cited from earlier work; for Exp (log D): Table 3; for logD Exp (logD): Table 4
[8] = Free energy of hydration by COSMO implicit solvent model (MolPro ver. 2012); settings: absolute error vs Exp (hydration)
Procedure: as §3

[9] = Free energy of solvation in cyclohexane predicted with the QM-parameterized force field model (ARROW FF), MD and PIMD; settings: Table 4; for CHEX Arrow MD Error: error of MD cyclohexane solvation free energy vs experiment; for CHEX Arrow PIMD4 Error: error of PIMD4 cyclohexane solvation free energy vs experiment
From the text: Cyclohexane (CHEX) is nonpolar and equilibrates relatively quickly.
as §1, with “Particle-Mesh” for “In some simulations of the QM-parameterized force field molecular simulation process, the molecules were placed in a water or cyclohexane box of size 32×32×32 Å3. Particle-Mesh”
as §2
Using the QM-parameterized force field model, the QM-parameterized force field device can compute or predict the solvation free energies using both the Bennett acceptance ratio (BAR) and thermodynamic integration (TI) method with <dH/dλ> values interpolated by cubic splines.

[10] = experimental, cited from earlier work; remark: listed apart in the source
[11] = implicit solvent model, values received; cited from earlier work
[12] = implicit solvent model, values received; cited from earlier work; remark: listed apart in the source
[13] = Table 3, absolute error of MD hydration free energy vs experiment
[14] = Table 3, absolute error of PIMD8 hydration free energy vs experiment
[15] = Table 3, free energy of solvation in cyclohexane
[16] = Table 3, absolute error of MD log D vs experiment
[17] = Table 3, absolute error of PIMD log D vs experiment
[18] = Table 3, free energy of hydration
[19] = Table 4, neutral amino-acid analogues
[20] = Table 4, error of MD hydration free energy vs experiment
[21] = Table 4, error of PIMD8 hydration free energy vs experiment
[22] = Table 4, solvation free energy in cyclohexane

| Structure (SMILES) | water Arrow MD Error [1, 13] | water Arrow PIMD8 Error [1, 14] | Arrow PIMD8 Error [1] | PCM Error [2] | COSMO-RS error [3] | SMD Error [4] | CHEX Exp (solvation) [5, 15] | log D Arrow MD Error [6, 16] | log D Arrow PIMD Error [6, 17] | Exp (log D) [7] | COSMO/Molpro Error [8] | CHEX Arrow MD Error [9] | CHEX Arrow PIMD4 Error [9] | water Exp (hydration) [10, 18] | water Exp (hydration) [10, 19] | water Arrow MD Error [1, 20] | water Arrow PIMD8 Error [1, 21] | CHEX Exp (solvation) [5, 22] | SMD free energy of hydration [11] | PCM free energy of hydration [12] | other results |
| --- | --- | --- | --- | --- | --- | --- | --- | --- | --- | --- | --- | --- | --- | --- | --- | --- | --- | --- | --- | --- | --- |
| CCC(C)=O [2-Butanone] | 0.43 kcal/mol | 0.16 kcal/mol | 0.16 kcal/mol | 0.19 kcal/mol | 0.17 kcal/mol | 0.09 kcal/mol | -3.47 kcal/mol | 0.11 | 0.21 | −0.18 | 4.15 kcal/mol |  |  |  |  |  |  |  |  |  |  |
| Cc1c[nH]c2ccccc12 [3-methyl-indole] | 2.00 kcal/mol | 1.02 kcal/mol | 1.02 kcal/mol |  | 0.99 kcal/mol |  | -8.08 kcal/mol |  |  | 1.61 | 1.95 kcal/mol | 0.24 kcal/mol | 0.01 kcal/mol | -5.88 kcal/mol | -5.88 kcal/mol | 2.00 kcal/mol | 1.02 kcal/mol | -8.08 kcal/mol |  |  | hydration error ([1]; predicted vs experimental free energy of hydration): -1 kcal/mol; log D Arrow MD Error [6]: 1.29; log D Arrow PIMD Error [6]: 0.76; logD Arrow MD Error [6]: 1.29; logD Arrow PIMD Error [6]: 0.76; logD Exp (logD) [7]: 1.61 |
| Cc1c[nH]cn1 [Methylimidazole (His)] |  |  |  |  |  |  |  |  |  |  |  | 0.33 kcal/mol | 0.09 kcal/mol |  | -10.06 kcal/mol | 0.40 kcal/mol | 0.03 kcal/mol | -5.59 kcal/mol |  |  | logD Arrow MD Error ([6]; Table 4, error of MD logD vs experiment): 0.05; logD Arrow PIMD Error ([6]; Table 4, error of PIMD logD vs experiment): 0.04; logD Exp (logD) [7]: −3.28 |
| c1ccc2ccccc2c1 [Napthalene] | 0.74 kcal/mol | 0.24 kcal/mol | 0.24 kcal/mol | 0.10 kcal/mol | 0.23 kcal/mol | 0.90 kcal/mol | -7.17 kcal/mol | 0.19 | 0.01 | 3.50 | 2.11 kcal/mol |  |  | -2.40 kcal/mol |  |  |  |  | -1.50 kcal/mol | -2.30 kcal/mol |  |
| CCCCC [Pentane] |  |  |  |  |  |  |  |  |  | 4.28 |  |  |  |  |  |  |  |  |  |  | log D Arrow MD Error [6]: 0.39; log D Arrow PIMD Error [6]: 0.17 |
| CCCS [Propanethiol] | 0.81 kcal/mol | 0.40 kcal/mol | 0.40 kcal/mol | 1.15 kcal/mol |  | 0.15 kcal/mol | -3.12 kcal/mol | 0.38 | 0.36 | 1.52 | 2.88 kcal/mol |  |  | -1.05 kcal/mol |  |  |  |  | -0.90 kcal/mol | -2.20 kcal/mol |  |
| CCCCN [butanamine] | 1.17 kcal/mol | 0.28 kcal/mol | 0.28 kcal/mol | 1.44 kcal/mol | 0.11 kcal/mol | 0.74 kcal/mol | -3.92 kcal/mol |  |  | −0.23 | 1.55 kcal/mol | 0.06 kcal/mol | 0.06 kcal/mol | -4.24 kcal/mol | -4.24 kcal/mol | 1.17 kcal/mol | 0.28 kcal/mol | -3.92 kcal/mol | -3.50 kcal/mol | -2.80 kcal/mol | log D Arrow MD Error [6]: 0.81; log D Arrow PIMD Error [6]: 0.16; logD Arrow MD Error [6]: 0.81; logD Arrow PIMD Error [6]: 0.16; logD Exp (logD) [7]: −0.23 |
| CCCC(=O)O [butyricacid] | 0.25 kcal/mol | 0.40 kcal/mol | 0.40 kcal/mol | 2.05 kcal/mol | 0.11 kcal/mol | 0.95 kcal/mol |  |  |  |  | 2.19 kcal/mol |  |  | -6.35 kcal/mol |  |  |  |  | -5.40 kcal/mol | -4.30 kcal/mol |  |
| CCCC=O [buytyraldehyde] | 0.61 kcal/mol | 0.07 kcal/mol | 0.07 kcal/mol | 0.52 kcal/mol | 0.07 kcal/mol | 0.18 kcal/mol |  |  |  |  | 4.47 kcal/mol |  |  | -3.18 kcal/mol |  |  |  |  | -3.00 kcal/mol | -3.70 kcal/mol |  |
| C=CCCC [pent-1-ene] | 0.59 kcal/mol | 0.25 kcal/mol | 0.25 kcal/mol | 2.48 kcal/mol | 0.56 kcal/mol | 0.28 kcal/mol |  |  |  |  | 3.57 kcal/mol |  |  | 1.68 kcal/mol |  |  |  |  | 1.40 kcal/mol | -0.80 kcal/mol |  |
